Where a name gives a salt, the structure may show the parent alone.
What was measured:
[1] = system: left auricle of guinea-pigs; test: Effect on the toxic effects of ouabain on the left auricle of guinea-pigs; settings: compound 10^-5 M, ouabain 10^-6 M; for % contracture: percentage of the initial contraction developed
Procedure: The left auricles are removed from guinea-pigs (350-450 g) which have been anaesthetised with sodium pentobarbital (30 mg/kg). The auricles are attached to a STATHAM (UC2-GOULD) tension sensor and the initial tension applied is 0.5 grammes. The auricles are stimulated electrically at 1 Hz by means of platinum electrodes.
Toxic effect is achieved by the addition of ouabain (10^-6 M). The test compounds are added 15 minutes prior to the addition of the toxic agent.

rabbit aortas = test: Anti-vasoconstrictive activity in calcium-free medium: contraction of rabbit aortas induced by noradrenaline; set-up: species or system New Zealand rabbits; settings: Oryctolagus cuniculus, 0.5 h, 30 minutes incubation, noradrenaline 10^-6 M, calcium-free (+0.2 mM EGTA); for inhibition at 1 µM: 10^-6 M compound; for inhibition at 0.1 µM: 10^-7 M compound
Procedure: (§1) The studies are carried out on rings, having a length of 3 mm, of aortas removed from WISTAR rats (325-375 g) which have been anaesthetised with sodium pentobarbital (30 mg/kg i.p.); or of aortas removed from New Zealand rabbits (1.8-2 kg) which have likewise been anaesthetised with sodium pentobarbital (30 mg/kg i.p.).
(§2) The vascular rings are immersed in a physiological solution, normal or calcium-free (+0.2 mM of EGTA chelator), which is kept at a temperature of 37° C. and aerated with a mixture of 95% O2 +5% CO2. The rings are connected to a STATHAM (UC2-GOULD) tension sensor. The optimum tensions for each vessel are applied and a stabilisation period of 90 minutes for the specimens is observed.
The inhibitory effect of a concentration of the compounds of the invention incubated for 30 minutes, with regard to vascular contraction induced by nonadrenaline (10^-6 M), is tested.

isolated rat's heart = test: Protective effect on an isolated rat's heart subjected to hypoxia-reoxygenation; set-up: species or system WISTAR rats; settings: compound 8·10^-7 M, solvent H2O; for % PVG at 30 min DE REOXYGENATION: 30 min reoxygenation after 60 min hypoxia
Procedure: The heart is removed from WISTAR rats (325-375 g). The heart is perfused rapidly according to the technique of LANGENDORFF at a constant pressure of 76 mmHg and is stimulated electrically at 5 Hz.
The heart is subjected to hypoxia for 60 minutes, which is effected by the administration of a gaseous mixture of 95% N2 +5% CO2 during that period, and is followed by reoxygenation for 30 minutes.
The test compounds are incubated for 15 minutes prior to and for the duration of the hypoxia.
The isovolumetric contractions are recorded by means of a polyethylene balloon connected to a pressure sensor (P23-GOULD) introduced into the left ventricle and inflated so as to obtain a diastolic pressure of between 5 and 10 mm of mercury.

rat aortas = test: Anti-vasoconstrictive activity in physiological medium: contraction of rat aortas induced by potassium depolarisation; set-up: species or system WISTAR rats; settings: 0.25 h, hyperpotassic medium (80 mM KCl, 37 mM NaCl), cumulative concentrations every 15 minutes, 37° C., read-out: Concentration inhibiting by 50% (IC50) the contraction of rat aortas induced by potassium depolarisation
Procedure: as §1, §2
Table (T1) summarises the IC50s obtained with the compounds of the Examples representing the compounds of the invention, with regard to the contraction of rat aortas induced by a hyperpotassic medium.

Row | IC50 (rat aortas) | SMILES | % contraction ([1]; 10 min, solvent H2O) | % contracture ([1]; 15 min, solvent H2O) | % contraction ([1]; 30 min, solvent H2O) | % contracture ([1]; 30 min, solvent H2O) | % contraction ([1]; 60 min, solvent H2O) | % contracture ([1]; 60 min, solvent H2O) | inhibition at 1 µM (rabbit aortas) | inhibition at 0.1 µM (rabbit aortas) | Contracture amplitude at 15 min reoxygenation (isolated rat's heart) | % PVG at 30 min DE REOXYGENATION (isolated rat's heart) | Contracture amplitude at 30 min reoxygenation (isolated rat's heart) | % contraction ([1]; 10 min, solvent DMSO) | % contracture ([1]; 15 min, solvent DMSO) | % contraction ([1]; 30 min, solvent DMSO) | % contracture ([1]; 30 min, solvent DMSO) | % contraction ([1]; 60 min, solvent DMSO) | % contracture ([1]; 60 min, solvent DMSO)
1 | 1.5 µM | CN(CCCOc1ccc(F)cc1)CC1CCN(S(=O)(=O)c2cccc3cnccc23)CC1 [Example 3, Fumarate of 1-(isoquinolin-5-ylsulphonyl)-4-{{N-methyl-N-[3-(p-fluorophenoxy)propyl]amino}methyl}piperidine] | 183.3 ± 20.7% | 0.9 ± 0.9% | 155.4 ± 15.0% | 7.7 ± 1.5% | 130.7 ± 34.5% | 21.8 ± 6.2% | 82% | 43% | 9.6 ± 2.4 mmHg | 85.4 ± 5.8% | 1.6 ± 1.0 mmHg |  |  |  |  |  | 
2 |  | CN(CCCCCOc1ccc(F)cc1)C1CCN(S(=O)(=O)c2cccc3cnccc23)CC1 [Example 4, Fumarate of 1-(isoquinolin-5-ylsulphonyl)-4 {N-methyl N-[5-(p-fluorophenoxy)pentyl]amino}piperidine] |  |  |  |  |  |  |  |  |  |  |  | 213.9 ± 22% | 0% | 208.6 ± 22% | 0% | 211.1 ± 30% | 0%
3 | 3.3 µM | CN(CCCC(=O)c1ccc(F)cc1)C1CCN(S(=O)(=O)c2cccc3cnccc23)CC1 [Example 2, Dihydrochloride of 1-(isoquinolin-5-ylsulphonyl)-4-{N-methyl-N-[4-oxo-4-(p-fluorophenyl)butyl]amino}piperidine] | 184.0 ± 17.3% | 1.4 ± 1.4% | 138.8 ± 34.9% | 10.5 ± 4.7% | 112.2 ± 31.0% | 33.5 ± 16.4% | 86% | 50% | 5.5 ± 4.3 mmHg | 95.0 ± 1.9% | 0.5 ± 0.5 mmHg |  |  |  |  |  | 
4 | 9.2 µM | CN(CCCCOc1ccc(F)cc1)C1CCN(S(=O)(=O)c2cccc3cnccc23)CC1 [Example 1, Fumarate of 1-(isoquinolin-5-ylsulphonyl)-4-{N-methyl-N-[4-(p-fluorophenoxy)butyl]amino}piperidine] |  |  |  |  |  |  | 62% |  |  |  |  | 254.7 ± 22% | 0% | 260.6 ± 29% | 0% | 253.6 ± 26% | 4 ± 4%
5 |  | CN(CCCC(=O)c1ccc(F)cc1)CC1CCN(S(=O)(=O)c2cccc3cnccc23)CC1 [Example 5, Dihydrochloride of 1-(isoquinolin-5-ylsulphonyl)-4-{N-methyl-N-[4-(p-fluorophenyl)-4-oxobutyl]aminomethyl}piperidine] | 206.1 ± 21% | 0% | 186.1 ± 21.2% | 2.8 ± 2.1% | 141.3 ± 25.3% | 16.5 ± 9.5% |  |  |  |  |  |  |  |  |  |  | 

Source: patent US5298503A, “N-(isoquinolin-5-ylsulphonyl) azacycloalkanes” (Adir et Compagnie, priority 1991, dated 1994)
